From US20240277717A1, “APPLICATION OF GANCICLOVIR IN PREPAPRATION OF MEDICINE FOR TREATING ALLERGIC RHINITIS” (Union Hospital, Tongji Medical College, Huazhong University …, priority 2023, published 2024) come the findings set out here.

In this test the test system is AR patients. The experiment in a line: Specific cases: earlier treatment reported in the patient history. In kind it is in vivo, human.

Turning to Omalizumab, the “nasal symptoms after earlier treatment (patient history)” value (Case 4, injected, before GCV) is recorded as “did not ameliorate” and the “nasal symptoms after earlier treatment (patient history)” value (Case 5, before GCV) was “without any improvement”.
